Literature values in patent publication US20240189323A1, “PREPARATION FOR ETHINYLESTRADIOL-CYCLODEXTRIN COMPLEX AND USE THEREOF” (NATIONAL RESEARCH INSTITUTE FOR FAMILY PLANNING, priority 2022, published 2024).

Conditions: background description

## C#C[C@]1(O)CC[C@H]2[C@@H]3CCc4cc(O)ccc4[C@H]3CC[C@@]21C [ethinylestradiol, 3-hydroxy-19-nor-17α-pregna-1,3,5(10)-trien-20-yn-17-ol]
  solubility in water: almost insoluble in water
